Results published in ChEMBL document CHEMBL1144639, “Imidazo[1,2-a]pyridines with potent activity against herpesviruses” (Bioorg Med Chem Lett, 2007).

Experiments:
Human alphaherpesvirus 1 = assay: Antiviral activity against HSV1 SC16 in Vero cells by capture hybrid method; assay type: functional, organism-based; details: Human alphaherpesvirus 1, SC16, Vero
[1] = Cytotoxicity against Vero cells; assay type: cell-based; details: chlorocebus sabaeus

| SMILES | IC50 (Human alphaherpesvirus 1) [nM] | CC50 [1] [nM] |
| --- | --- | --- |
| N#Cc1ccc(-c2nc3c(NC4CCCC4)cccn3c2-c2ccnc(NC3CCCC3)n2)cc1 | 320 | > 40000 |
| Cc1cc(NC2CC2)cn2c(-c3ccnc(NC4CCCC4)n3)c(-c3ccc(F)cc3)nc12 | 120 | > 40000 |
| Cc1cc(Br)cn2c(-c3ccnc(NC4CCCC4)n3)c(-c3ccc(F)cc3)nc12 | 1160 | > 40000 |
| c1cc(NC2CCCC2)c2nc(-c3ccc(OCC4CC4)cc3)c(-c3ccnc(NC4CCCC4)n3)n2c1 | 270 | > 40000 |
| COc1ccc(-c2nc3c(NC4CCCC4)cccn3c2-c2ccnc(NC3CCCC3)n2)cc1 | 480 | > 10000 |
| Oc1cccc(-c2nc3c(NC4CCCC4)cccn3c2-c2ccnc(NC3CCCC3)n2)c1 | 3130 | > 40000 |
| Cc1cc(NC2CCCC2)cn2c(-c3ccnc(NC4CCCC4)n3)c(-c3ccc(F)cc3)nc12 | 150 | > 40000 |
| COc1ccc(-c2nc3c(Cl)cccn3c2-c2ccnc(NC3CCCC3)n2)cc1 | 1430 | 30100 |
| Fc1ccc(-c2nc3c(NC4CCCC4)cc(Br)cn3c2-c2ccnc(NC3CCCC3)n2)cc1 | 220 | > 40000 |
| Nc1nc2c(ncn2COCCO)c(=O)[nH]1 [ACYCLOVIR] | – | > 200000 |
| Oc1ccc(-c2nc3c(NC4CCCC4)cccn3c2-c2ccnc(NC3CCCC3)n2)cc1 | 3400 | > 40000 |
| Fc1ccc(-c2nn3c(NC4CCCC4)cccc3c2-c2ccnc(NC3CCCC3)n2)cc1 | – | > 160000 |
| COc1cccc(-c2nc3c(Cl)cccn3c2-c2ccnc(NC3CCCC3)n2)c1 | 1730 | > 40000 |
| C=CCOc1ccc(-c2nc3c(NC4CCCC4)cccn3c2-c2ccnc(NC3CCCC3)n2)cc1 | 570 | > 40000 |
| Fc1ccc(-c2nc3c(NC4CCCC4)cccn3c2-c2ccnc(NC3CCCC3)n2)cc1 | 590 | > 40000 |
| Cc1ccc(-c2nc3c(NC4CCCC4)cccn3c2-c2ccnc(NC3CCCC3)n2)cc1 | 1610 | > 40000 |
| CNc1nccc(-c2c(-c3ccc(F)cc3)nc3c(Cl)cccn23)n1 | 9300 | > 40000 |

| SMILES | IC50 (Human alphaherpesvirus 1) [nM] | CC50 [1] [nM] |
| --- | --- | --- |
| Fc1ccc(-c2nc3c(NC4CC4)cccn3c2-c2ccnc(NC3CCCC3)n2)cc1 | 510 | 33000 |
| Fc1ccc(-c2nc3c(NC4CCCC4)cc(Cl)cn3c2-c2ccnc(NC3CCCC3)n2)cc1 | 370 | > 40000 |
| CCCCNc1cc(Br)cn2c(-c3ccnc(NC4CCCC4)n3)c(-c3ccc(F)cc3)nc12 | 300 | > 40000 |
| C=CCOc1cccc(-c2nc3c(NC4CCCC4)cccn3c2-c2ccnc(NC3CCCC3)n2)c1 | 300 | > 40000 |
| Fc1ccc(-c2nc3c(NC4CCCC4)cccn3c2-c2ccnc(NC3CCCC3)c2)cc1 | – | > 40000 |
| Fc1ccc(-c2nc3ccccn3c2-c2ccnc(NC3CCCC3)n2)cc1 | 3300 | > 40000 |
| COCCNc1cccn2c(-c3ccnc(NC4CCCC4)n3)c(-c3ccc(F)cc3)nc12 | 260 | > 40000 |
| CNc1nccc(-c2c(-c3ccc(F)cc3)nc3c(NC4CCCC4)cccn23)n1 | > 5000 | > 40000 |
| Fc1ccc(-c2nc3ccc(Br)cn3c2-c2ccnc(NC3CCCC3)n2)cc1 | 4080 | > 40000 |
| Fc1ccc(-c2nc3c(Br)cc(Br)cn3c2-c2ccnc(NC3CCCC3)n2)cc1 | 800 | > 40000 |
| Fc1ccc(-c2nc3ccc(NC4CCCC4)cn3c2-c2ccnc(NC3CCCC3)n2)cc1 | 330 | > 40000 |
| CCCCNc1cccn2c(-c3ccnc(NC4CCCC4)n3)c(-c3ccc(F)cc3)nc12 | 800 | 32000 |
| N#Cc1cccc(-c2nc3c(NC4CCCC4)cccn3c2-c2ccnc(NC3CCCC3)n2)c1 | 360 | > 40000 |
| Fc1ccc(-c2nc3c(Cl)cc(Cl)cn3c2-c2ccnc(NC3CCCC3)n2)cc1 | 1110 | > 40000 |
| Cc1cccn2c(-c3ccnc(NC4CCCC4)n3)c(-c3ccc(F)cc3)nc12 | 1530 | > 40000 |
| Fc1ccc(-c2nc3c(N4CCCC4)cccn3c2-c2ccnc(NC3CCCC3)n2)cc1 | 1880 | > 40000 |
| COc1cccc(-c2nc3c(NC4CCCC4)cccn3c2-c2ccnc(NC3CCCC3)n2)c1 | 710 | > 40000 |
